Measurements reported in patent US20110086877A1 (priority 2005, published 2011).
Where “and” joins values, the source holds several entries; their conditions need not be identical. Equal values may be shown once.

Key:
[1] = target: T1, BoNT/A LC (Clostridium botulinum, UniProt P0DPI0); assay: biochemical; format: binding
[2] = test system: chick spinal motor neurons
[3] = target: BoNT/A LC metalloprotease (Clostridium botulinum, UniProt P0DPI0); assay: biochemical
[4] = target: BoNT/A holotoxin (Clostridium botulinum, UniProt P0DPI1); format: cell-based
Sequence of BoNT/A holotoxin (P0DPI1 2-448 limits assumed): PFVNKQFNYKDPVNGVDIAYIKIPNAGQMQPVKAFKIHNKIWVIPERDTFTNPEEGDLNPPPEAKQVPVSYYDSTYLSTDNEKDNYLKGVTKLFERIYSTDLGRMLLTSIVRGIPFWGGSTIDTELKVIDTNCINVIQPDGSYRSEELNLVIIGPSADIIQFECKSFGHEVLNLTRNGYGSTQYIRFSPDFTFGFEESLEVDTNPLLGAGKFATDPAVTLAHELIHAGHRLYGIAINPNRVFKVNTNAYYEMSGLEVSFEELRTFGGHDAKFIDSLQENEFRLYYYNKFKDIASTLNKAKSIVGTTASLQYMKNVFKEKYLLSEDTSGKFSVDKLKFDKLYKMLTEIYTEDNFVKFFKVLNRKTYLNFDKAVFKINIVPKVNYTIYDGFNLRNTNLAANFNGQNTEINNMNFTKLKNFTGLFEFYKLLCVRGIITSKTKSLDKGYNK

[5] = target: anthrax lethal factor (Bacillus anthracis, UniProt P15917); format: biochemical
Sequence of anthrax lethal factor (P15917 34-809 limits assumed): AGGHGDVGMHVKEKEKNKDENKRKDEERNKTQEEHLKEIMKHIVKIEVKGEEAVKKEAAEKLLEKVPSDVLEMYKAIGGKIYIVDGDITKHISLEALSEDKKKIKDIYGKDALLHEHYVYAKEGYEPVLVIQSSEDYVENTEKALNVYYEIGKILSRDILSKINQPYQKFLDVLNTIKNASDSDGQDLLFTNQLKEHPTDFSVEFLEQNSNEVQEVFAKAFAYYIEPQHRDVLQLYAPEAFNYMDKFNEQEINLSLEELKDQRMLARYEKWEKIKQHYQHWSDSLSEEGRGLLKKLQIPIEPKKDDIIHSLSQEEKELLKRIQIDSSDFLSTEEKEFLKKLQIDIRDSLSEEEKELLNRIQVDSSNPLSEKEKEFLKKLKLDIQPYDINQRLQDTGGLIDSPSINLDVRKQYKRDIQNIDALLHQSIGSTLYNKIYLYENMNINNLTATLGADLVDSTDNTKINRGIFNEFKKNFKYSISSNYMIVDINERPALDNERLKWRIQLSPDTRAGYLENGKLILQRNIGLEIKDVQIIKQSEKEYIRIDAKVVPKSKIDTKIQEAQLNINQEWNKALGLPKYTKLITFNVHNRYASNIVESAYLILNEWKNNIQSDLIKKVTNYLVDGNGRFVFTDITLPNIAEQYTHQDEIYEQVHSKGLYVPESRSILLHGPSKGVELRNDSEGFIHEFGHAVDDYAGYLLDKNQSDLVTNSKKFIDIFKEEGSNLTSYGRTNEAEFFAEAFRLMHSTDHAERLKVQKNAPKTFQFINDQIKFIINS

[6] = target: T1, BoNT/A LC; details: cited from earlier work

Sequence of BoNT/A LC metalloprotease (P0DPI0 2-448 limits assumed): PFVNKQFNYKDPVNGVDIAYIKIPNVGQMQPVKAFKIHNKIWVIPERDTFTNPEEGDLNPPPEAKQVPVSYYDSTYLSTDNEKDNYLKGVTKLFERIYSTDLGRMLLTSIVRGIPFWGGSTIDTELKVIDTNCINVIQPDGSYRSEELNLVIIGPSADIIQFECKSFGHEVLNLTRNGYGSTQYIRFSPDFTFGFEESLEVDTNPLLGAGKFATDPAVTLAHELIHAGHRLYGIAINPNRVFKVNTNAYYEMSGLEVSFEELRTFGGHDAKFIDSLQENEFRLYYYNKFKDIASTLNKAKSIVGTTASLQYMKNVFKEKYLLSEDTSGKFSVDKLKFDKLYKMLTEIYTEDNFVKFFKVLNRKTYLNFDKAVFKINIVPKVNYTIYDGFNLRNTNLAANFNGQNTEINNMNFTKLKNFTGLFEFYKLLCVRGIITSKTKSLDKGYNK
T1 sequence (P0DPI0 2-448 limits assumed): as above

Compound	% Inhibition of BoNT/A LC metalloprotease activity [3] [%]	inhibition of protease activity of anthrax lethal factor [5]	further results
N=C(N)c1ccc(Oc2ccc(-c3cc4ccc(C(=N)N)cc4[nH]3)cc2)cc1 [NSC 240898]	61	inhibit the protease activity of anthrax lethal factor	ΔH [1]: −3.04 and −3.04 ± 0.20 kcal mol^−1; ΔS [1]: 14 and 14.0 cal mol^−1 K^−1; Kd ([1]; Kd): ~4.6 µM and 4.6 µM; Ka ([1]; pH 7.4): 218000 ± 45000 M⁻¹; N (number of binding sites, stoichiometry) ([1]; pH 7.4): 0.83±0.04; morphological signs of damage (tubulin, actin, DNA staining) [2]: little or no morphological signs of damage; concentration tolerated by cells without substantial cytotoxic effects ([2]; chick): about 40 μM; inhibition of SNAP-25 cleavage [4]: robust dose-dependent inhibition
N=C(N)c1ccc2oc(/C=C/c3cc4cc(C(=N)N)ccc4s3)cc2c1 [NSC 266472]	57	–	–
C(=C\c1cc2cc(C3=NCCN3)ccc2o1)/c1cc2cc(C3=NCCN3)ccc2o1 [NSC 278999]	53	–	–
N=C(N)c1ccc2[nH]c(/C=C/c3cc4cc(C(=N)N)ccc4o3)cc2c1 [NSC 290107]	52	inhibit the protease activity of anthrax lethal factor	–
C(=C\c1cc2cc(C3=NCCN3)ccc2o1)/c1cc2cc(C3=NCCN3)ccc2[nH]1 [NSC 290108]	51	inhibit the protease activity of anthrax lethal factor	–
N=C(N)c1ccc2cc(/C=C/c3cc4ccc(C(=N)N)cc4o3)[nH]c2c1 [NSC 294200]	48	inhibit the protease activity of anthrax lethal factor	–
N=C(N)c1ccc2[nH]c(/C=C/c3cc4ccc(C(=N)N)cc4o3)cc2c1 [NSC 294203]	46	inhibit the protease activity of anthrax lethal factor	–
C(=C\c1cc2ccc(C3=NCCN3)cc2o1)/c1cc2cc(C3=NCCN3)ccc2[nH]1 [NSC 294204]	38	inhibit the protease activity of anthrax lethal factor	–
C(=C\c1cc2ccc(C3=NCCN3)cc2o1)/c1cc2ccc(C3=NCCN3)cc2o1 [NSC 294494]	45	–	–
N=C(N)c1ccc2oc(/C=C/C=C/c3cc4cc(C(=N)N)ccc4o3)cc2c1 [NSC 300511]	37	inhibit the protease activity of anthrax lethal factor	–
C(/C=C/c1cc2cc(C3=NCCN3)ccc2o1)=C\c1cc2cc(C3=NCCN3)ccc2o1 [NSC 308571]	52	inhibit the protease activity of anthrax lethal factor	–
N=C(N)c1ccc2oc(/C=C/C=C/C=C/c3cc4cc(C(=N)N)ccc4o3)cc2c1 [NSC 308574]	63	inhibit the protease activity of anthrax lethal factor	concentration at which highly cytotoxic ([2]; chick): 1 to 5 µM
C(=C\c1cc2ccc(C3=NCCN3)cc2[nH]1)/c1cc2ccc(C3=NCCN3)cc2[nH]1 [NSC 317880]	35	inhibit the protease activity of anthrax lethal factor	–
c1cc2cc(-c3ccc(-c4cc5ccc(C6=NCCN6)cc5[nH]4)cc3)[nH]c2cc1C1=NCCN1 [NSC 317881]	45	inhibit the protease activity of anthrax lethal factor	–
C(=C\c1cc2cc(C3=NCCN3)ccc2s1)/c1ccc(C2=NCCN2)cc1 [NSC 317883]	41	–	–
N=C(N)c1ccc(/C=C/c2cc3cc(C(=N)N)ccc3[nH]2)cc1 [NSC 317884]	47	inhibit the protease activity of anthrax lethal factor	–
N=C(N)c1ccc(/C=C/c2cc3ccc(C(=N)N)cc3[nH]2)cc1 [NSC 317886]	43	inhibit the protease activity of anthrax lethal factor	–
CCN(CC)CCCNc1cc(C)nc2c1ccc1c2ccc2c(NCCCN(CC)CC)cc(C)nc21 [NSC 328398]	–	–	inhibition at 10 µM ([3]; at 10 μM): 45%
c1cc2cc(-c3cc4ccc(C5=NCCN5)cc4[nH]3)[nH]c2cc1C1=NCCN1 [NSC 330688]	43	–	–
C(=C\c1cc2ccc(C3=NCCN3)cc2[nH]1)/c1ccc(Oc2ccc(C3=NCCN3)cc2)cc1 [NSC 330690]	53	–	–
C(=C\c1cc2ccc(C3=NCCN3)cc2[nH]1)/c1ccc2cc(C3=NCCN3)[nH]c2c1 [NSC 341907]	60	inhibit the protease activity of anthrax lethal factor	–
N=C(N)N/N=C/c1ccc(-c2cc3ccc(/C=N/NC(=N)N)cc3s2)cc1 [NSC 341909]	68	inhibit the protease activity of anthrax lethal factor	concentration at which highly cytotoxic ([2]; chick): 1 to 5 µM
C1=NC(c2ccc3cc(-c4c(-c5ccc(C6=NCCN6)cc5)[nH]c5cc(C6=NCCN6)ccc45)[nH]c3c2)NC1 (stereo not shown) [NSC 341911]	37	inhibit the protease activity of anthrax lethal factor	–
C(=C\c1ccc2[nH]c(C3=NCCN3)cc2c1)/c1ccc(Oc2ccc(C3=NCCN3)cc2)cc1 [NSC 352341]	40	–	–
C(=C/c1cc2cc(C3=NCCN3)ccc2o1)/c1cc2cc(C3=NCCN3)ccc2o1 [NSC 607617]	36	–	–
C[C@H](CS)C(=O)N1CCC[C@H]1C(=O)O [captopril]	–	–	inhibition of BoNT/A LC by known protease inhibitors [6]: inhibited by mM concentrations
CCOC(=O)[C@H](CCc1ccccc1)N[C@@H](C)C(=O)N1CCC[C@H]1C(=O)O [enalapril]	–	–	inhibition of BoNT/A LC by known protease inhibitors [6]: inhibited by mM concentrations
NCCCC[C@H](N[C@@H](CCc1ccccc1)C(=O)O)C(=O)N1CCC[C@H]1C(=O)O [lysinopril]	–	–	inhibition of BoNT/A LC by known protease inhibitors [6]: inhibited by mM concentrations
CRATKML	–	–	inhibitor potency in words [6]: potent inhibitor
